# Measured values: US20210213104A1, “GLUCAGON AND GLP-1 CO-AGONISTS FOR THE TREATMENT OF CHRONIC KIDNEY DISEASE AND DIABETIC KIDNEY DISEASE IN TYPE 2 DIABETES” (MEDIMMUNE LIMITED, priority 2020, published 2021)
# Test system: subjects with T2DM and renal impairment
# Experiment: Phase 2a: continuous glucose monitoring (CGM)
# Format: in vivo, human
# Details: ITT
# Experimental: Cotadutide was titrated from 50 μg up to 300 μg and administered once daily by subcutaneous (SC) injection over 32 days.
# Cotadutide was administered at 50 μg once daily for 4 days, followed by 100 μg daily for 7 days, 200 μg daily for 7 days, and 300 μg daily for 14 days (n=20). Placebo was administered one daily for 32 days (n=20). Cotadutide and placebo were administered in the morning. Dosing commenced following predose baseline vital signs, blood tests (including HbA1c), an electrocardiogram (ECG), body weight measurement, and bioimpedance spectroscopy (BIS). Subjects then returned for daily dosing or remained overnight locally until Day 5, and thereafter, had visits at weekly intervals until a maintenance dose of 300 μg was established. Thus, Cotadutide or placebo was administered at the study site by study personal for the first four doses and on site on Days 5, 12, 19, and 32. At all other times, subjects preformed dosing at home.
# A Freestyle Libre® Pro CGM device was used to measure interstitial glucose levels. […] Data generated by CGM was used at visits to adjust insulin doses and other treatments.
# The CGM sensor, which is a small plastic circular device of 35 mm diameter and 5 mm depth, was applied to the back of the upper arm. Subjects wore the CGM sensor continuously up until the time of a sensor change, which was to occur within 14 days, and they were advised that they could bathe and shower, and swim in up to 3 m depth for up to 30 minutes while wearing the CGM sensor. When the CGM sensor was removed, a new CGM sensor could be reapplied, ideally close to the original site, but with the subject's site preference taken into account. CGM sensors were single-use only.
# If a subject was unable to tolerate wearing the CGM sensor for the entire duration of the study, the sensor was removed; but the subject was to remain in the study with or without continued CGM and could instead be instructed to monitor capillary plasma glucose measurements four times per day (before meals and before bedtime) and record these levels in the diary provided.
# Subjects underwent continuous glucose monitoring (CGM) starting from Day −14 to Day 40 (±5 days), with sensor changes within 14-day intervals. CGM readings were used to analyze change in average CGM glucose and glucose AUC7 d, coefficient of variation as a marker of glycemic variability, and time spent in target glucose range and hypoglycemia, to enable comparison across different dose levels.
# [1] = 200 μg (Days 12 to 18), baseline Days −8 to −2, ANCOVA
# [2] = 200 μg (Days 12 to 18), baseline Days −8 to −2
# [3] = 200 μg Dose (Days 12 to 18), Insulin Dose < 20 U/day
# [4] = 200 μg Dose (Days 12 to 18), Insulin Dose ≥ 20 U/day
# [5] = 200 μg Dose (Days 12 to 18), Total
smiles,measurement,setting,value
CCCCCCCCCCCCCCCC(=O)N[C@@H](CCC(=O)NCCCC[C@H](NC(=O)[C@H](CC(=O)O)NC(=O)[C@H](CO)NC(=O)[C@@H](NC(=O)[C@H](Cc1ccccc1)NC(=O)[C@@H](NC(=O)CNC(=O)[C@H](CCC(N)=O)NC(=O)[C@H](CO)NC(=O)[C@@H](N)Cc1c[nH]cn1)[C@@H](C)O)[C@@H](C)O)C(=O)N[C@@H](CO)C(=O)N[C@@H](CCC(=O)O)C(=O)N[C@@H](Cc1ccc(O)cc1)C(=O)N[C@@H](CC(C)C)C(=O)N[C@@H](CC(=O)O)C(=O)N[C@@H](CO)C(=O)N[C@@H](CCC(=O)O)C(=O)N[C@@H](CCCNC(=N)N)C(=O)N[C@@H](C)C(=O)N[C@@H](CCCNC(=N)N)C(=O)N[C@@H](CC(=O)O)C(=O)N[C@@H](Cc1ccccc1)C(=O)N[C@H](C(=O)N[C@@H](C)C(=O)N[C@@H](Cc1c[nH]c2ccccc12)C(=O)N[C@@H](CC(C)C)C(=O)N[C@@H](CCC(=O)O)C(=O)N[C@@H](C)C(=O)NCC(=O)NCC(=O)O)C(C)C)C(=O)O [Cotadutide],"Time in target range, Difference in LS Mean Change (vs Placebo)","100 μg Dose (Days 5 to 11), Total",22.74%
same,"Average CGM Glucose Over 7-Day Periods, End of Dosing Period, Mean",200 μg (Days 12 to 18),131.724 mg/dL
same,"Average CGM Glucose Over 7-Day Periods, End of Dosing Period, Median",200 μg (Days 12 to 18),121.570 mg/dL
same,"Percentage of time CGM Glucose in Hyperglycemia (>180 mg/dL), End of Dosing Period, Mean",200 μg (Days 12 to 18),14.77%
same,"Percentage of time CGM Glucose in Hyperglycemia (>180 mg/dL), End of Dosing Period, Median",200 μg (Days 12 to 18),6.61%
same,"Average CGM Glucose Over 7-Day Periods, Difference in LS Mean Change (vs Placebo)",[1],-40.34 mg/dL
same,"Average CGM Glucose Over 7-Day Periods, LS Mean Change",[1],-30.66 mg/dL
same,"Percentage of time CGM Glucose in Clinically Significant Hypoglycemia (<54 mg/dL), Difference in LS Mean Change (vs Placebo)",[1],0.43%
same,"Percentage of time CGM Glucose in Clinically Significant Hypoglycemia (<54 mg/dL), LS Mean Change",[1],−0.21%
same,"Percentage of time CGM Glucose in Hyperglycemia (>180 mg/dL), Difference in LS Mean Change (vs Placebo)",[1],−25.47%
same,"Percentage of time CGM Glucose in Hyperglycemia (>180 mg/dL), LS Mean Change",[1],−19.24%
same,"Percentage of time CGM Glucose in Hypoglycemia (<70 mg/dl), Difference in LS Mean Change (vs Placebo)",[1],0.86%
same,"Percentage of time CGM Glucose in Hypoglycemia (<70 mg/dl), LS Mean Change",[1],−0.14%
same,"Average CGM Glucose Over 7-Day Periods, Change from Baseline to End of Dosing Period, Mean",[2],-30.668 mg/dL
same,"Average CGM Glucose Over 7-Day Periods, Change from Baseline to End of Dosing Period, Median",[2],-32.533 mg/dL
same,"Percentage of time CGM Glucose in Hyperglycemia (>180 mg/dL), Change from Baseline to End of Dosing Period, Mean",[2],−19.36%
same,"Percentage of time CGM Glucose in Hyperglycemia (>180 mg/dL), Change from Baseline to End of Dosing Period, Median",[2],−17.72%
same,"Time in target range, LS Mean Change","200 μg Dose (Days 12 to 18), ANCOVA, Insulin Dose < 20 U/day",21.04%
same,"Time in target range, LS Mean Change","200 μg Dose (Days 12 to 18), ANCOVA, Insulin Dose ≥ 20 U/day",12.92%
same,"Time in target range, LS Mean Change","200 μg Dose (Days 12 to 18), ANCOVA, Total",15.62%
same,"Percentage of Time CGM Glucose Within Target Range (70-180 mg/dL), Mean",[3],89.01%
same,"Percentage of Time CGM Glucose Within Target Range (70-180 mg/dL), Median",[3],96.38%
same,"Time in target range, Change from Baseline (Days −8 to −2), Mean",[3],24.48%
same,"Time in target range, Change from Baseline (Days −8 to −2), Median",[3],23.79%
same,"Time in target range, Difference in LS Mean Change (vs Placebo)",[3],25.01%
same,"Percentage of Time CGM Glucose Within Target Range (70-180 mg/dL), Mean",[4],73.53%
same,"Percentage of Time CGM Glucose Within Target Range (70-180 mg/dL), Median",[4],79.59%
same,"Time in target range, Change from Baseline (Days −8 to −2), Mean",[4],11.20%
same,"Time in target range, Change from Baseline (Days −8 to −2), Median",[4],11.27%
same,"Time in target range, Difference in LS Mean Change (vs Placebo)",[4],18.72%
same,"Percentage of Time CGM Glucose Within Target Range (70-180 mg/dL), Mean",[5],78.69%
same,"Percentage of Time CGM Glucose Within Target Range (70-180 mg/dL), Median",[5],80.69%
same,"Time in target range, Change from Baseline (Days −8 to −2), Mean",[5],15.39%
same,"Time in target range, Change from Baseline (Days −8 to −2), Median",[5],14.44%
same,"Time in target range, Difference in LS Mean Change (vs Placebo)",[5],20.96%
